# Experimental data reported in US20110165115A1, “SYNERGISTIC ATTRACTANTS FOR PESTIFEROUS SOCIAL INSECTS” (STERLING INTERNATIONAL INC., priority 2010, published 2011).
# Experiments:
# [1] = test system: V. pensylvanica; conditions: background; cited from earlier work
# [2] = test system: V. vidua; conditions: background; cited from earlier work
# [3] = test system: V. consobrina; format: in vivo, Vespula consobrina; conditions: Exp 1; HIPV added to WHY attractant in the top chamber, or WHY alone
# Description: (§1) Three field trapping experiments were carried out during late July to early August 2009, in residential and woody areas around Spokane, Wash., USA, using the newly marketed Rescue® W•H•Y traps (www.rescue.com). As used herein, the W•H•Y trap is a trap in accordance with the description of United States Patent Application Publication No. 2009/0151228. The W•H•Y trap has a top chamber and a bottom chamber. The top chamber is baited with two attractants—one of which is a solid contained in a vial (2-methyl-1-butanol) and the other a liquid mixed with water (acetic acid), herein referred to as the W•H•Y top attractant. The bottom chamber is baited with a liquid attractant (heptyl butyrate) poured onto a cotton pad, herein referred to as the W•H•Y bottom attractant. Separation of the top and bottom attractants (otherwise antagonistic to each other when released from the same chamber) in two chambers was a design feature of this trap and creates two focal attraction sources from one trap for different species of wasps, hornets, and yellowjackets. Traps were hung 1.5-2.0 m above the ground on either the fence or tree branches ca. 5 m apart within each trap line. For each trapping experiment, six sets of traps were deployed with their initial trap positions within each set being randomized. To minimize positional effects and obtain more replications, wasp collections and trap re-randomization were carried out when ≧10-20 wasps were caught in the best trap. Each replicate lasted several days depending on wasp flight activity. Captured wasps were removed from the traps and kept in the zip-bags before taking back to the laboratory for recording of the species, gender status, and catch. […]
# (§2) Trap catch data were converted to proportion (P) of total captured wasps within each replicate. Data were then transformed by arcsin√P to meet the assumptions of normality and homogeneity of variances for ANOVA. Means were compared by ANOVA followed by the Ryan-Einot-Gabriel-Welsh (REGW) multiple Q test (SPSS 16.0 for Windows) at α=0.05.
# [4] = test system: D. maculata; experiment: Field trapping Experiment 1, Rescue W•H•Y traps; format: in vivo, Dolichovespula maculata; conditions: Exp 1; HIPV added to WHY attractant in the top chamber, or WHY alone
# Description: (§3) Three field trapping experiments were carried out during late July to early August 2009, in residential and woody areas around Spokane, Wash., USA, using the newly marketed Rescue® W•H•Y traps (www.rescue.com). As used herein, the W•H•Y trap is a trap in accordance with the description of United States Patent Application Publication No. 2009/0151228. The W•H•Y trap has a top chamber and a bottom chamber. The top chamber is baited with two attractants—one of which is a solid contained in a vial (2-methyl-1-butanol) and the other a liquid mixed with water (acetic acid), herein referred to as the W•H•Y top attractant. The bottom chamber is baited with a liquid attractant (heptyl butyrate) poured onto a cotton pad, herein referred to as the W•H•Y bottom attractant. Separation of the top and bottom attractants (otherwise antagonistic to each other when released from the same chamber) in two chambers was a design feature of this trap and creates two focal attraction sources from one trap for different species of wasps, hornets, and yellowjackets. Traps were hung 1.5-2.0 m above the ground on either the fence or tree branches ca. 5 m apart within each trap line. For each trapping experiment, six sets of traps were deployed with their initial trap positions within each set being randomized. To minimize positional effects and obtain more replications, wasp collections and trap re-randomization were carried out when ≧10-20 wasps were caught in the best trap. Each replicate lasted several days depending on wasp flight activity. Captured wasps were removed from the traps and kept in the zip-bags before taking back to the laboratory for recording of the species, gender status, and catch.
# (§4) Experiment 1 (Jul. 22-30, 2009) tested ten synthetic HIPV candidates [(E)-2-hexenal, (Z)-3-hexen-1-ol, (Z)-3-hexenyl acetate, cis-ocimene, linalool, methyl salicylate, geranyl acetate, trans-β-caryophyllene, trans-β-farnesene and (E)-4,8-dimethyl-1,3,7-nonatriene], including several paper wasp EAD-active compounds (see FIG. 2 for details), to determine their potential synergistic effect on the Rescue® W•H•Y trap attractants to paper wasps, yellowjackets, and hornets. Experiment 2 (Aug. 5-13, 2009) tested behavioral responses of the paper wasps and yellowjackets to the Rescue® W•H•Y trap attractants (top attractants only) and its combination with (E)-4,8-dimethyl-1,3,7-nonatriene, one of the EAD-active and behaviorally significant HIPVs, in a dose-response fashion. Experiment 3 (Aug. 5-13, 2009) was conducted to determine the potential behavioral activity of different doses of (E)-4,8-dimethyl-1,3,7-nonatriene alone. The individual (or different doses) HIPVs were loaded into either polyethylene bags or centrifuge tube type of dispensers, and released from the top of the W•H•Y trap chamber. W•H•Y trap attractants (both top and bottom or top only) alone and water (top chamber only) were included in the test as positive and blank controls, respectively. The dispenser types, loading and release rates of the tested semiochemicals are described in Tables 1, 2 and 3.
# as §2
# [5] = test system: V. atropilosa; format: in vivo, Vespula atropilosa; conditions: Exp 1; HIPV added to WHY attractant in the top chamber, or WHY alone
# Description: as §1, §2
# [6] = test system: V. pensylvanica; experiment: Field trapping Experiment 1, Rescue W•H•Y traps; format: in vivo, Vespula pensylvanica; conditions: Exp 1; HIPV added to WHY attractant in the top chamber, or WHY alone
# Description: as §3
# (§5) Experiment 3 (Aug. 5-13, 2009) was conducted to determine the potential behavioral activity of different doses of (E)-4,8-dimethyl-1,3,7-nonatriene alone. The individual (or different doses) HIPVs were loaded into either polyethylene bags or centrifuge tube type of dispensers, and released from the top of the W•H•Y trap chamber. W•H•Y trap attractants (both top and bottom or top only) alone and water (top chamber only) were included in the test as positive and blank controls, respectively. The dispenser types, loading and release rates of the tested semiochemicals are described in Tables 1, 2 and 3.
# as §2
# [7] = test system: D. arenaria; experiment: Field trapping Experiment 1, Rescue W•H•Y traps; format: in vivo, Dolichovespula arenaria; conditions: Exp 1; HIPV added to WHY attractant in the top chamber, or WHY alone
# Description: as §3, §4, §2
# [8] = test system: P. dominulus; experiment: Field trapping Experiment 1, Rescue W•H•Y traps; format: in vivo, Polistes dominulus; conditions: Exp 1; HIPV added to WHY attractant in the top chamber, or WHY alone
# Description: as §3, §5, §2
# [9] = test system: P. aurifer; experiment: Field trapping Experiment 1, Rescue W•H•Y traps; format: in vivo, Polistes aurifer; conditions: Exp 1; HIPV added to WHY attractant in the top chamber, or WHY alone
# Description: as §3, §5, §2
# [10] = test system: V. acadica; experiment: Field trapping Experiment 1, Rescue W•H•Y traps; format: in vivo, Vespula acadica; conditions: Exp 1; HIPV added to WHY attractant in the top chamber, or WHY alone
# Description: as §3, §5, §2
# [11] = test system: V. vulgaris; experiment: Field trapping Experiment 1, Rescue W•H•Y traps; format: in vivo, Vespula vulgaris; conditions: Exp 1; HIPV added to WHY attractant in the top chamber, or WHY alone
# Description: as §3, §5, §2
# [12] = test system: P. dominulus workers antennae; experiment: GC-EAD of synthetic mixture of known HIPVs; parameters: species or system Polistes dominulus; conditions: 100 ng/μl each in hexane
# Description: Aeration samples of the cherry branches (damaged or undamaged/slightly damaged) were injected (3 μl) splitless into a Varian CP-3800 GC equipped with a polar column (HP-INNOWax; 30 m×0.53 mm×1.0 μm film thickness; Agilent Technologies, Wilmington, Del., USA) and a 1:1 effluent splitter that allowed simultaneous flame ionization detection (FID) and electroantennographic detection (EAD) of the European paper wasp (Polistes dominulus) worker antennae to the separated volatile compounds. Helium was used as the carrier gas, and the injector and detector temperatures were 250° C. and 300° C., respectively. Column temperature was 50° C. for 1 min, rising to 240° C. at 10° C./min, and then held for 10 min. The outlet for the EAD was held in a humidified air stream flowing at 0.5 m/sec over the antennal preparation. EAD recordings were made using silver wire-glass capillary electrodes filled with Beadle-Ephrussi Ringer on freshly cut antennae. The antennal signals were stored and analyzed on a PC equipped with a serial IDAC interface box and the program EAD ver. 2.5 (Syntech, Hilversum, The Netherlands). In addition, GC-EAD responses to a synthetic mixture (100 ng/μl each) containing nine known HIPVs including cis-3-hexen-1-ol, cis-3-hexenyl acetate, trans-β-ocimene, (E)-4,8-dimethyl-1,3,7-nonatriene, linalool, methyl salicylate, geranyl acetate, trans-β-caryophyllene and trans-β-farnesene were tested on the P. dominulus workers. (See FIG. 2.) The same chemicals were also tested on beneficial insect antennae from Chrysopa oculata, Myrmeleon crudelis, Podisus maculiventris, and Hippodarnia convergens. (See FIG. 6.) Antennally active peaks in the aeration samples were identified by GC-MS on an HP 6890 GC series coupled with an HP 5973 Mass Selective Detector using the same type of GC column and conditions as described above. Compounds were identified by comparison of retention times with those of authentic standards and with mass spectra of standards.
# [13] = test system: Polistes dominulus worker antennae; experiment: GC-EAD of cherry branch aeration samples; conditions: aeration of severely damaged cherry branches; at current release rates
# Description: Lapin cherry branches with severely damaged cherries and leaves and undamaged or slightly damaged branches were collected from a cherry orchard at Creston, Canada, on Jul. 29, 2009, and were transported to the Sterling International, Inc. lab (Spokane, Wash.) on the same day and kept at 4° C. before aerations. Headspace volatiles from the cherry branches (damaged or undamaged) were sampled by a battery operated pump and a high density polyacetate oven bag (48.2×59.6 cm Reynolds® Oven Bag; Richmond, Va., USA) enclosure with one activated charcoal filter tube in the air inlet, on Jul. 30, 2009. The volatiles in the enclosure were trapped on one Porapak Q tube (50/80 mesh; 30 mg in Teflon tube: 3 mm×35 mm) for 2.5 hr (airflow 300 ml/min) and extracted with 1 ml redistilled pentane. Aeration samples of the cherry branches (damaged or undamaged/slightly damaged) were injected (3 μl) splitless into a Varian CP-3800 GC equipped with a polar column (HP-INNOWax; 30 m×0.53 mm×1.0 μm film thickness; […] Helium was used as the carrier gas, and the injector and detector temperatures were 250° C. and 300° C., respectively. Column temperature was 50° C. for 1 min, rising to 240° C. at 10° C./min, and then held for 10 min. The outlet for the EAD was held in a humidified air stream flowing at 0.5 m/sec over the antennal preparation. EAD recordings were made using silver wire-glass capillary electrodes filled with Beadle-Ephrussi Ringer on freshly cut antennae. The antennal signals were stored and analyzed on a PC equipped with a serial IDAC interface box and the program EAD ver. 2.5 (Syntech, Hilversum, The Netherlands). […] (See FIG. 2.) The same chemicals were also tested on beneficial insect antennae from Chrysopa oculata, Myrmeleon crudelis, Podisus maculiventris, and Hippodarnia convergens. (See […] active peaks in the aeration samples were identified by GC-MS on an HP 6890 GC series coupled with an HP 5973 Mass Selective Detector using the same type of GC column and conditions as described above. Compounds were identified by comparison of retention times with those of authentic standards and with mass spectra of standards.
# [14] = test system: yellowjackets; experiment: Field trapping Experiment 1, top chamber catches; format: in vivo; conditions: Exp 1; HIPV combined with W•H•Y attractant (acetic acid and 2-methyl-1-butanol) in the top chamber
# Description: as §3
# Experiment 3 (Aug. 5-13, 2009) was conducted to determine the potential behavioral activity of different doses of (E)-4,8-dimethyl-1,3,7-nonatriene alone. The individual (or different doses) HIPVs were loaded into either polyethylene bags or centrifuge tube type of dispensers, and released from the top of the W•H•Y trap chamber. […]
# [15] = test system: yellowjackets occurring in the Eastern United States, hornets and paper wasps; conditions: background; cited from earlier work
Structure (SMILES),attraction [1],attraction [2],Total Yellowjacket Catches V. consobrina [3],Total Yellowjacket Catches D. maculata [4],Total Yellowjacket Catches V. atropilosa [5],Total Yellowjacket Catches V. pensylvanica [6],Total Yellowjacket Catches D. arenaria [7],Total Paper Wasps P. dominulus [8],Total Paper Wasps P. aurifer [9],Total Yellowjacket Catches V. acadica [10],Total Yellowjacket Catches V. vulgaris [11],EAD response of worker antennae [12],EAD response of worker antennae [13],effect on trap catches of yellowjackets in the top chambers [14],attraction [15]
"CC=CC=CCOC(=O)CCC [2,4-hexadienyl butyrate]",powerfully attractive,,,,,,,,,,,,,,
"CCCCC/C=C\C=C\C(=O)OCC [ethyl (E,Z)-2,4-decadienoate]",,attracted,,,,,,,,,,,,,
"C=CC(=C)CC/C=C(\C)CCC=C(C)C [E-β-Farnesene, trans-β-farnesene]",,,0,8,1,321,10,29,13,0,36,No repeatable EAD-responses,,,
"C=C1CC/C=C(\C)CC[C@@H]2[C@@H]1CC2(C)C (relative stereo) [β-Caryophyllene, trans-β-caryophyllene]",,,1,0,1,234,5,35,12,2,51,No repeatable EAD-responses,,,
"C=C/C(C)=C/CC=C(C)C [Ocimene, cis-ocimene]",,,0,17,2,402,11,29,17,0,52,,did not elicit significant EAD-responses,significant synergistic effect,
CCCCCCCOC(=O)CCC [heptyl butyrate],as attractive,,,,,,,,,,,,,,ineffective
